Paper PMC7594054, “Design, Synthesis and In Vitro Experimental Validation of Novel TRPV4 Antagonists Inspired by Labdane Diterpenes” (Marine Drugs, 2020)
Entries after “also recorded” stand apart in the source; their conditions may differ. Where two headings read alike, the source gives them in different places.

Tests used:
rTRPV4 = target: T1, rTRPV4 (Rattus norvegicus, UniProt Q9ERZ8); assay: TRPV4 calcium influx assay (Fluo-4) in HEK-293 cells overexpressing rat recombinant TRPV4; assay type: cell-based; details: for IC50: against the effect of GSK1016790A (10 nM) after a 5-min pre-incubation, read-out: IC50 inh. TRPV4; for Efficacy %: as percent of the effect of ionomycin (4 µM), HEK-293 cells overexpressing rTRPV4, means ± SEM, n >= 3
T1 construct: expressed in transfected cells; host or cells: HEK-293
T1 sequence (Q9ERZ8 whole entry): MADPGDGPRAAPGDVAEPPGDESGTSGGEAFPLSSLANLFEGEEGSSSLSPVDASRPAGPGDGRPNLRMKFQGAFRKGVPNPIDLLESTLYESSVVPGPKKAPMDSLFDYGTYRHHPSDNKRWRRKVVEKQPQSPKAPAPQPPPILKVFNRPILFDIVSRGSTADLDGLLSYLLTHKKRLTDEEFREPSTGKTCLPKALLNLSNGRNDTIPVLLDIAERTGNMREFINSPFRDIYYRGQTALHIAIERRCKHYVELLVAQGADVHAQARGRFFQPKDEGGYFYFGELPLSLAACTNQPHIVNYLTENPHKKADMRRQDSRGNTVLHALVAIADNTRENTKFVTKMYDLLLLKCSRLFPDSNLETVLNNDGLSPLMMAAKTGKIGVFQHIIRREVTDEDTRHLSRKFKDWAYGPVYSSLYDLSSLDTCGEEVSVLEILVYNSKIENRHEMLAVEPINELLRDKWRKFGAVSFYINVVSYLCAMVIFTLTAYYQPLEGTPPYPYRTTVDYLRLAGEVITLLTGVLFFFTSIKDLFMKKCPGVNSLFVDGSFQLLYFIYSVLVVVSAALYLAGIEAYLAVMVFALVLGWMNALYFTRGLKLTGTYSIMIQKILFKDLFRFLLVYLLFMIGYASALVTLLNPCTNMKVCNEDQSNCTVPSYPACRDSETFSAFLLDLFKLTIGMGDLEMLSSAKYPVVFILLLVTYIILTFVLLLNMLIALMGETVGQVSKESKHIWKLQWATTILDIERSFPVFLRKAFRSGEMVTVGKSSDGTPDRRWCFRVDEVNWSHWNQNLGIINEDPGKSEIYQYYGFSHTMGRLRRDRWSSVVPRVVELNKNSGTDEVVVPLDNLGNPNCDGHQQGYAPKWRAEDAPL
Excerpt: The interaction properties of all homodrimane-derived compounds 1–16, 18–19, and 22–25 with either TRPV type-4 or type-1 were studied in human embryonic kidney (HEK)-293 cells overexpressing either the rat recombinant type-4 (rTRPV4), which shares with the human orthologue ~95% of sequence identity, and the human recombinant type-1 (hTRPV1) channel, evaluating the changes in intracellular calcium levels. […] Cell fluorescence before and after the addition of various concentrations of test compounds was measured normalizing the effects against the response to ionomycin (4 μM). […] Dose-response curve fitting (sigmoidal dose-response variable slope) and parameter estimation were performed with Graph-Pad Prism8® (GraphPad Software Inc., San Diego, CA, USA). All determinations were performed at least in triplicate.

hTRPV1 = target: T2, hTRPV1 (Homo sapiens, UniProt Q8NER1); assay: TRPV1 calcium influx assay (Fluo-4) in HEK-293 cells overexpressing human recombinant TRPV1; assay type: cell-based; details: for IC50: read-out: IC50 inh TRPV1; for EC50: activation, NA = not active (efficacy lower than 10%), read-out: Potency EC50; for Efficacy %: as percent of the effect of ionomycin (4 µM), HEK-293 cells overexpressing hTRPV1, means ± SEM, N >= 3
T2 construct: expressed in transfected cells; host or cells: HEK-293
T2 sequence (Q8NER1 whole entry): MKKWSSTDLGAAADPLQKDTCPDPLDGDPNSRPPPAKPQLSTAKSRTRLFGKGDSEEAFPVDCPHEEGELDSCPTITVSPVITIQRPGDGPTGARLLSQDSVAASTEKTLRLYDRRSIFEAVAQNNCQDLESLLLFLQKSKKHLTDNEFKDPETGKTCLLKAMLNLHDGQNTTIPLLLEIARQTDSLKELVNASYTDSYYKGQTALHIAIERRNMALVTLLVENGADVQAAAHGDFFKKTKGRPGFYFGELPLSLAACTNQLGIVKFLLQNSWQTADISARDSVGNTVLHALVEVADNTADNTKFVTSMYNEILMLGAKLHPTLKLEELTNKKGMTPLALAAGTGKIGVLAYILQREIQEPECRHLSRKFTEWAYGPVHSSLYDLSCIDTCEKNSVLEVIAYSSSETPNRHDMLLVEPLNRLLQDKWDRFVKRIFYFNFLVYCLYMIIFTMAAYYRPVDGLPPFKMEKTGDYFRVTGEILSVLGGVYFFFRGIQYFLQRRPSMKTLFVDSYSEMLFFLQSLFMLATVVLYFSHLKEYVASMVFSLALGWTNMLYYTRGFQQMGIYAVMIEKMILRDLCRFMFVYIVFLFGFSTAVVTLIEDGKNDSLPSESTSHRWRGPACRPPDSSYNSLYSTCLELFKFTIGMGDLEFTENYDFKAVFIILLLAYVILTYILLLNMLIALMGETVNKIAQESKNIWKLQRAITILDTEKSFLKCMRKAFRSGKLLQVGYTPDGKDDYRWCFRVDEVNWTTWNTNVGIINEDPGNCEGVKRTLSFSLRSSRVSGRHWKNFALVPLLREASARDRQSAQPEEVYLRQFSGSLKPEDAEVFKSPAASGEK

[1] = activation, half-maximal increase in [Ca2+]i, NA = not active (efficacy lower than 10%), read-out: Potency EC50

IC50 (rTRPV4) [µM]	Efficacy % (rTRPV4) [%]	IC50 (hTRPV1) [µM]	activity on rTRPV4 in words (rTRPV4)	EC50 (rTRPV4; [1]) [µM]	EC50 (hTRPV1) [µM]	Efficacy % (hTRPV1) [%]	melting point [°C]	activity on hTRPV1 in words (hTRPV1)	Structure (SMILES)	EC50 (rTRPV4) [µM]
7 ± 0.1	<10	> 100	–	–	–	–	–	–	CC1(C)CCC[C@]2(C)[C@@H](CC(=O)NCCc3ccc(Cl)cc3)[C@](C)(O)CC[C@@H]12 [Compound 11, N-(4-chlorophenethyl)-2-((1R,2R,4aS,8aS)-2-hydroxy-2,5,5,8a-tetramethyldecahydronaphthalen-1-yl)acetamide]	–
6 ± 0.1	14.6 ± 1.5	> 100	good rTRPV4 agonist	1.1 ± 1	4.7 ± 0.4	32.0 ± 1.2	–	–	CC1(C)CCC[C@]2(C)[C@@H](CC(=O)Nc3ccccc3-n3cccc3)[C@](C)(O)CC[C@@H]12 [Compound 3, N-(2-(1H-pyrrol-1-yl)phenyl)-2-((1R,2R,4aS,8aS)-2-hydroxy-2,5,5,8a-tetramethyldecahydronaphthalen-1-yl)acetamide]	–
–	–	–	–	–	–	–	–	–	CC(C)C[C@H](NC(=O)c1cc2ccccc2s1)C(=O)N1CCN(C(=O)[C@H](CO)NS(=O)(=O)c2ccc(Cl)cc2Cl)CC1 [GSK1016790A, N-((1S)-1-{[4-((2S)-2-{[(2,4-dichlorophenyl)sulfonyl]amino} -3-hydroxypropanoyl)-1-piperazinyl]carbonyl}-3-methylbutyl)-1-benzothiophene-2-carboxamide, reference compound]	0.0035
11.9 ± 0.4	<10	> 50	–	–	–	20.8 ± 1.6	–	–	CC1(C)CCC[C@]2(C)[C@@H](CC(=O)NCCc3cccc(F)c3)[C@](C)(O)CC[C@@H]12 [Compound 13, N-(3-fluorophenethyl)-2-((1R,2R,4aS,8aS)-2-hydroxy-2,5,5,8a-tetramethyldecahydronaphthalen-1-yl)acetamide]	–
> 100	<10	> 100	–	–	–	–	–	–	CC1(C)CCC[C@]2(C)[C@@H](CC(=O)Nc3cc(F)ccc3F)[C@](C)(O)CC[C@@H]12 [Compound 2, N-(2,5-difluorophenyl)-2-((1R,2R,4aS,8aS)-2-hydroxy-2,5,5,8a-tetramethyldecahydronaphthalen-1-yl)acetamide]	–
–	<10	> 100	–	–	–	–	155 to 156	–	CC1(C)CCC[C@]2(C)[C@@H](CCOC(=O)c3ccc4c(c3)OCO4)[C@](C)(O)CC[C@@H]12 [Compound 22, 2-((1R,2R,4aS,8aS)-2-Hydroxy-2,5,5,8a-tetramethyldecahydronaphthalen-1-yl)ethyl Benzo[d][1,3]dioxole-5-carboxylate]	–
16.9 ± 0.8	15.8 ± 0.8	> 50	–	13.4 ± 2.6	9.9 ± 0.1	24.5± 0.2	135 to 136	–	CC1(C)CCC[C@]2(C)[C@@H](CC(=O)NCc3ccc(F)cc3)[C@](C)(O)CC[C@@H]12 [Compound 7, N-(4-fluorobenzyl)-2-((1R,2R,4aS,8aS)-2-hydroxy-2,5,5,8a-tetramethyldecahydronaphthalen-1-yl)acetamide]	–
32 ± 0.8	<10	–	–	–	–	36.8 ± 0.2	–	–	CC1(C)CCC[C@]2(C)[C@@H](CC(=O)NCc3ccccc3)[C@](C)(O)CC[C@@H]12 [Compound 4, N-benzyl-2-((1R,2R,4aS,8aS)-2-hydroxy-2,5,5,8a-tetramethyldecahydronaphthalen-1-yl)acetamide]	–
> 100	<10	> 100	completely devoid of activity	–	–	–	–	–	CC1(C)CCC[C@]2(C)[C@@H](CC(=O)NCc3ccc(-c4ccccc4)cc3)[C@](C)(O)CC[C@@H]12 [Compound 15, N-((1,1′-biphenyl)-4-ylmethyl)-2-((1R,2R,4aS,8aS)-2-hydroxy-2,5,5,8a-tetramethyldecahydronaphthalen-1-yl)acetamide]	–
> 100	<10	> 100	inactive	–	–	–	–	inactive	CC1(C)CCC[C@]2(C)[C@@H](CCOCc3cccc(Cl)c3)[C@](C)(O)CC[C@@H]12 [Compound 25, (1R,2R,4aS,8aS)-1-(2-((3-Chlorobenzyl)oxy)ethyl)-2,5,5,8a-tetramethyldecahydronaphthalen-2-ol]	–
15.6 ± 0.3	<10	–	–	–	–	–	–	–	CC1(C)CCC[C@]2(C)[C@@H](CC(=O)NCCc3ccccc3)[C@](C)(O)CC[C@@H]12 [Compound 10, 2-((1R,2R,4aS,8aS)-2-hydroxy-2,5,5,8a-tetramethyldecahydronaphthalen-1-yl)-N-phenethylacetamide]	–
11.4 ± 0.1	<10	> 100	–	–	–	–	–	–	CC1(C)CCC[C@]2(C)[C@@H](CC(=O)NCCc3ccc(F)cc3)[C@](C)(O)CC[C@@H]12 [Compound 12, N-(4-fluorophenethyl)-2-((1R,2R,4aS,8aS)-2-hydroxy-2,5,5,8a-tetramethyldecahydronaphthalen-1-yl)acetamide]	–
> 100	<10	> 100	–	–	–	–	–	–	CC1(C)CCC[C@]2(C)[C@@H](CCOC(=O)CCCc3cccs3)[C@](C)(O)CC[C@@H]12 [Compound 24, 2-((1R,2R,4aS,8aS)-2-hydroxy-2,5,5,8a-tetramethyldecahydronaphthalen-1-yl)ethyl 4-(thiophen-2-yl)butanoate]	–
> 100	<10	> 100	completely devoid of activity	–	–	17.5 ± 2.7	–	–	CC1(C)CCC[C@]2(C)[C@@H](CC(=O)OCc3ccc(Cl)c(Cl)c3)[C@](C)(O)CC[C@@H]12 [Compound 19, 3,4-dichlorobenzyl 2-((1R,2R,4aS,8aS)-2-hydroxy-2,5,5,8a-tetramethyldecahydronaphthalen-1-yl)acetate]	–
> 100	<10	> 100	inactive	–	–	–	–	inactive	COC(=O)CC1C(C)(O)CCC2C(C)(C)CCCC21C (stereo not drawn) [Compound 20]	–
> 100	<10	> 100	complete loss of activity	–	–	–	–	–	CC1(C)CCC[C@]2(C)[C@@H](CC(=O)NCCCn3ccnc3)[C@](C)(O)CC[C@@H]12 [Compound 16, N-(3-(1H-imidazol-1-yl)propyl)-2-((1R,2R,4aS,8aS)-2-hydroxy-2,5,5,8a-tetramethyldecahydronaphthalen-1-yl)acetamide]	–
> 100	<10	> 100	–	–	–	33.6 ± 0.8	–	–	CC1(C)CCC[C@]2(C)[C@@H](CC(=O)Nc3ccccc3)[C@](C)(O)CC[C@@H]12 [Compound 1, 2-((1R,2R,4aS,8aS)-2-Hydroxy-2,5,5,8a-tetramethyldecahydronaphthalen-1-yl)-N-phenylacetamide]	–
29.7 ± 0.7	<10	> 100	–	–	–	19.7 ± 1.1	–	–	COc1ccc(CNC(=O)C[C@@H]2[C@@]3(C)CCCC(C)(C)[C@@H]3CC[C@@]2(C)O)cc1 [Compound 8, 2-((1R,2R,4aS,8aS)-2-hydroxy-2,5,5,8a-tetramethyldecahydronaphthalen-1-yl)-N-(4-methoxybenzyl)acetamide]	–
7.7 ± 0.3	<10	> 100	–	–	–	–	–	–	CC1(C)CCC[C@]2(C)[C@@H](CC(=O)NCc3ccc(Cl)cc3)[C@](C)(O)CC[C@@H]12 [Compound 5, N-(4-chlorobenzyl)-2-((1R,2R,4aS,8aS)-2-hydroxy-2,5,5,8a-tetramethyldecahydronaphthalen-1-yl)acetamide]	–
18.1 ± 0.2	<10	> 100	–	–	–	–	–	–	COc1cccc(CNC(=O)C[C@@H]2[C@@]3(C)CCCC(C)(C)[C@@H]3CC[C@@]2(C)O)c1 [Compound 9, 2-((1R,2R,4aS,8aS)-2-hydroxy-2,5,5,8a-tetramethyldecahydronaphthalen-1-yl)-N-(3 methoxybenzyl)acetamide]	–

Structure (SMILES)	IC50 (rTRPV4) [µM]	Efficacy % (rTRPV4) [%]	IC50 (hTRPV1) [µM]	activity on rTRPV4 in words (rTRPV4)	EC50 (rTRPV4; [1]) [µM]	EC50 (hTRPV1) [µM]	Efficacy % (hTRPV1) [%]	melting point [°C]	activity on hTRPV1 in words (hTRPV1)	EC50 (rTRPV4) [µM]
CC1(C)CCC[C@]2(C)[C@@H](CC(=O)NCc3ccco3)[C@](C)(O)CC[C@@H]12 [Compound 14, N-(furan-2-ylmethyl)-2-((1R,2R,4aS,8aS)-2-hydroxy-2,5,5,8a-tetramethyldecahydronaphthalen-1-yl)acetamide]	53.5 ± 1.8	<10	> 100	very weak antagonist properties	–	–	25.2 ± 2.0	–	–	–
CC1(C)CCC[C@]2(C)[C@H]3CC(=O)O[C@]3(C)CC[C@@H]12 [Scd, (+)-Sclareolide, reference compound]	> 100	11.3 ± 0.7	> 100	unable to modulate either channel; also recorded: inactive	> 10	–	12.6 ± 0.5	–	unable to modulate either channel	–
CC1(C)CCCC2(C)C1CCC(C)(O)C2CCO (stereo not drawn) [Compound 21]	> 100	<10	> 100	unable to modulate either channel; also recorded: inactive	–	–	–	–	unable to modulate either channel	–
